Laboratory results taken from PubChem BioAssay (NCI).
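96-well plates; 48 h exposure; 5 concentrations. Endpoints by linear interpolation between flanking doses. Not reached: highest tested concentration assigned. TGI denotes the concentration required for complete inhibition of growth.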

How the values were obtained:
Assay in all cases: NCI tumour cell line growth inhibition, 48 h
IGROV1 ovarian = test system: IGROV1 ovarian
MALME-3M melanoma = test system: MALME-3M melanoma
MOLT-4 leukemia = test system: MOLT-4 leukemia
NCI-H226 lung = test system: NCI-H226 lung
NCI-H23 lung = test system: NCI-H23 lung
NCI-H460 lung = test system: NCI-H460 lung
OVCAR-3 ovarian = test system: OVCAR-3 ovarian
OVCAR-4 ovarian = test system: OVCAR-4 ovarian
SF-295 CNS = test system: SF-295 CNS
SK-OV-3 ovarian = test system: SK-OV-3 ovarian
SN12C renal = test system: SN12C renal
SW-620 colon = test system: SW-620 colon
UO-31 renal = test system: UO-31 renal
MCF7 breast = test system: MCF7 breast
MDA-MB-435 = test system: MDA-MB-435
MDA-N = test system: MDA-N
PC-3 prostate = test system: PC-3 prostate
DU-145 prostate = test system: DU-145 prostate
T-47D breast = test system: T-47D breast

| Structure (SMILES) | TGI (IGROV1 ovarian) [µM] | TGI (MALME-3M melanoma) [µM] | TGI (MOLT-4 leukemia) [µM] | TGI (NCI-H226 lung) [µM] | TGI (NCI-H23 lung) [µM] | TGI (NCI-H460 lung) [µM] | TGI (OVCAR-3 ovarian) [µM] | TGI (OVCAR-4 ovarian) [µM] | TGI (SF-295 CNS) [µM] | TGI (SK-OV-3 ovarian) [µM] | TGI (SN12C renal) [µM] | TGI (SW-620 colon) [µM] | TGI (UO-31 renal) [µM] | TGI (MCF7 breast) [µM] | TGI (MDA-MB-435) [µM] | TGI (MDA-N) [µM] | TGI (PC-3 prostate) [µM] | TGI (DU-145 prostate) [µM] | TGI (T-47D breast) [µM] |
| --- | --- | --- | --- | --- | --- | --- | --- | --- | --- | --- | --- | --- | --- | --- | --- | --- | --- | --- | --- |
| CCOc1ccc2nc(NC(=O)c3c/c(=N\NC(=O)C[N+](C)(C)C)c4ccc(O)cc4o3)sc2c1 | 8.64 | 2.56 | 5.74 | 12 | 7.13 | 13.4 | 0.402 | 5.96 | 11.1 | 25.2 | 14.5 | 5.28 | 24.7 |  |  |  |  |  |  |
| O=C(Cn1c2c(c3ccccc31)CCCC2)NC1CCCCC1 | > 100 | > 100 |  |  | > 100 | > 100 | > 100 | > 100 | > 100 | > 100 | > 100 | > 100 | > 100 | > 100 | > 100 | > 100 | > 100 |  |  |
| O=c1cc(-c2ccccc2)[nH]c2cc(O)ccc12 | 65.6 | > 100 | 54.7 | > 100 | 87.6 | 33.3 |  | 58.1 | > 100 | 90.7 | 89.6 | 31.3 | 49.3 |  |  |  |  |  |  |
| COc1ccc(N2C(=O)C3c4[nH]c5ccc(C)cc5c4C4CCC(C)CC4C3C2=O)cc1 (centres undefined) | > 100 | > 100 | > 100 | > 100 | > 100 | > 100 | > 100 |  | > 100 | > 100 | > 100 | > 100 | > 100 |  | > 100 | > 100 | > 100 | > 100 |  |
| CCOC(=O)C1=C(O)C(=O)c2ccsc2C1=O | > 100 | > 100 | > 100 | > 100 | > 100 | > 100 | > 100 | > 100 | > 100 | > 100 | > 100 | > 100 | > 100 |  |  |  |  |  |  |
| COc1ccc(NC(=O)C/C(C)=N\N=C(N)N)c([N+](=O)[O-])c1 | > 100 | > 100 | > 100 | > 100 | > 100 | > 100 | > 100 | > 100 | > 100 | > 100 | > 100 |  | > 100 |  |  |  |  |  |  |
| CN(C)CCCNC(=O)N/N=C/c1cccc([N+](=O)[O-])c1 | > 100 | > 100 | > 100 | > 100 | > 100 | > 100 | > 100 | > 100 | > 100 | > 100 | > 100 | > 100 |  |  |  |  |  |  |  |
| CCO[C@]12C[C@H](OC)[C@@]3(O)CC(C1[C@H]3OCc1ccccc1)C13C4C2[C@H](OC)C1[C@](COC)(CN4CC)[C@H](O)C[C@@H]3OC (some centres undefined) | > 100 |  | > 100 | > 100 | > 100 | > 100 |  | > 100 |  | > 100 | > 100 | > 100 | > 100 |  |  |  |  |  |  |
| COc1cc(OC)c(/C=C2\N=C(C)N(Nc3nnc(NN4C(=O)/C(=C/c5c(OC)cc(OC)cc5OC)N=C4C)c4ccccc34)C2=O)c(OC)c1 | > 100 |  | > 100 | > 100 | > 100 | > 100 |  | > 100 | > 100 |  | > 100 | > 100 |  |  |  |  |  |  |  |
| C=C1CC2OC2(C(=O)O[C@H]2CCC3[C@@H]4CCC5=CC(=O)CC[C@]5(C)C4CC[C@@]32C)C1=O (some centres undefined) | 25.6 | 16.5 | 5.96 | 55.5 | 27.3 | 28.9 | 21.8 | 18.4 | 42.8 | 38.8 | 13.9 | 11.8 | 15.4 |  | 48.7 |  |  | 32.9 | 14.2 |
| COc1ccccc1NC(=O)/C(Cc1nc2ccc([N+](=O)[O-])cc2[nH]c1=O)=N\NC(=O)C[N+](C)(C)C | > 100 |  | > 100 | > 100 | > 100 | > 100 | > 100 | > 100 | > 100 | > 100 | > 100 | > 100 | > 100 | > 100 | > 100 | 36 | > 100 | > 100 |  |
| NNC(=O)c1ccc(-n2nnc(C(=O)NN)c2C(=O)NN)cc1 |  | > 100 | > 100 |  | > 100 | > 100 | > 100 | > 100 | > 100 |  | > 100 |  | > 100 | > 100 | > 100 | > 100 | > 100 | > 100 |  |
